Measured values taken from patent US20260124226A1 (priority 2023, published 2026).
Values joined by “and” are separate entries in the source; they are usually repeats but may differ in a detail not shown here. Identical values can stand only once. Like-named read-outs stand apart in the source and are kept apart here.

Legend:
[1] = both, human
[2] = male, CD-1, mouse
[3] = male, Sprague-Dawley, rat
[4] = both, human, pH 7.4
[5] = CD-1, mouse
[6] = male, Sprague-Dawley, rat, pH 7.4
[7] = Plasma stability
[8] = Plasma stability; remark: listed apart in the source
[9] = Plasma stability; remark: listed apart in the source
[10] = test system: VEEV; test: microbe, parasite or virus in culture; format: cell-based, Venezuelan equine encephalitis virus
[11] = test system: EEEV; test: microbe, parasite or virus in culture; format: cell-based, Eastern equine encephalitis virus; conditions: Eastern equine encephalitis virus
[12] = test system: WEEV; test: microbe, parasite or virus in culture; format: cell-based, Western equine encephalitis virus
[13] = test system: CHIKV; test: microbe, parasite or virus in culture; format: cell-based, Chikungunya virus
[14] = test system: RVFV; test: microbe, parasite or virus in culture; format: cell-based, Rift Valley fever virus
[15] = test system: Heartland virus; test: microbe, parasite or virus in culture; format: cell-based; conditions: Vero
[16] = test system: La Crosse virus; test: microbe, parasite or virus in culture; format: cell-based
[17] = test system: Marpol virus; test: organism not typed; format: cell-based
[18] = test system: Punta Toro virus; test: microbe, parasite or virus in culture; format: cell-based
[19] = test system: Severe fever thrombocytopenia syndrome virus; test: organism not typed; format: cell-based; conditions: Vero
[20] = test system: Junin virus; test: microbe, parasite or virus in culture; format: cell-based
[21] = test system: Lymphocytic choriomeningitis virus; test: microbe, parasite or virus in culture; format: cell-based; conditions: Mammarenavirus choriomeningitidis, Vero
[22] = test system: Pichinde virus; test: microbe, parasite or virus in culture; format: cell-based; conditions: Vero
[23] = test system: Tacaribe virus; test: microbe, parasite or virus in culture; format: cell-based
[24] = test system: Influenza A H1N1; test: microbe, parasite or virus in culture; format: cell-based, influenza A virus
[25] = test system: Flu A H7N9 (High Path); test: microbe, parasite or virus in culture; format: cell-based, influenza A virus
[26] = test system: Flu A H5N1 (High Path); format: cell-based, influenza A virus
[27] = test system: Flu A H3N2; test: microbe, parasite or virus in culture; format: cell-based, influenza A virus
[28] = test system: Flu A H5N1 (Low Path); test: microbe, parasite or virus in culture; format: cell-based, influenza A virus
[29] = test system: Flu B; test: microbe, parasite or virus in culture; format: cell-based, influenza B virus
[30] = test system: Parainfluenza virus 3; test: organism not typed; format: cell-based
[31] = test system: EBOV; test: microbe, parasite or virus in culture; format: cell-based, Ebola virus; conditions: Zaire ebolavirus, Vero
[32] = test system: MERS; test: microbe, parasite or virus in culture; format: cell-based, MERS coronavirus; conditions: Middle East respiratory syndrome-related coronavirus
[33] = test system: POWV; test: microbe, parasite or virus in culture; format: cell-based, Powassan virus
[34] = test system: ZIKV; test: microbe, parasite or virus in culture; format: cell-based, Zika virus; conditions: for EC50: Vero 76 cells
[35] = test system: DENV2; test: microbe, parasite or virus in culture; format: cell-based, Dengue virus 2; conditions: Dengue virus
[36] = test system: Usutu virus; test: microbe, parasite or virus in culture; format: cell-based; conditions: Vero 76
[37] = test system: Poliovirus; test: microbe, parasite or virus in culture; format: cell-based
[38] = test system: Enterovirus-68; test: microbe, parasite or virus in culture; format: cell-based, EV-D68
[39] = test system: HRV-14; test: microbe, parasite or virus in culture; format: cell-based, human rhinovirus; conditions: Rhinovirus B, HRV14
[40] = test system: Vero cells; conditions: African green monkey
[41] = in vitro; conditions: African green monkey
[42] = in vitro; conditions: dog
[43] = in vitro; conditions: African green monkey; remark: listed apart in the source
[44] = in vitro; conditions: Syrian golden hamster
[45] = in vitro; conditions: human
[46] = in vitro; conditions: human; remark: listed apart in the source
[47] = Liver microsome stability; conditions: both, human, microsomes, pH 7.4
[48] = Liver microsome stability; conditions: CD-1, mouse, microsomes
[49] = Liver microsome stability; conditions: male, Sprague-Dawley, rat, microsomes, pH 7.4
[50] = test system: RSV; test: microbe, parasite or virus in culture; format: cell-based; conditions: human respiratory syncytial virus, MA104
[51] = test system: SARS-CoV-2; test: microbe, parasite or virus in culture; format: cell-based; conditions: Severe acute respiratory syndrome coronavirus 2, Vero C1008
[52] = test system: WNV; test: microbe, parasite or virus in culture; format: cell-based; conditions: West Nile virus, Vero 76
[53] = test system: YFV; test: microbe, parasite or virus in culture; format: cell-based; conditions: Yellow fever virus, Huh-7
[54] = test system: ENTV71; test: microbe, parasite or virus in culture; format: cell-based, EV-A71; conditions: Enterovirus A, Vero 76
[55] = test system: MEV; test: microbe, parasite or virus in culture; format: cell-based; conditions: Measles morbillivirus, Vero 76
[56] = female, ICR (CD-1), mouse, in vivo, po
[57] = mouse, in vivo, po, 15 mg/kg
[58] = in vitro; conditions: human; remark: listed apart in the source
[59] = physchem; conditions: simulated gi fluid, pH 1.3
[60] = physchem; conditions: simulated gi fluid, pH 5.2
[61] = Western equine encephalitis virus, Vero 76
[62] = Mammarenavirus tacaribeense, Vero
[63] = Rift Valley fever virus, Huh-7, RVFV strain MP-12, Huh7 cells

Compound: CC(C)[C@H](N)C(=O)OC[C@@]1(F)O[C@@H](n2ccc(=O)[nH]c2=O)[C@H](O)[C@@H]1O [EIDD-2971, [(1S)-1-[[(2S,3S,4R,5R)-5-(2,4-dioxopyrimidin-1-yl)-2-fluoro-3,4-dihydroxy-tetrahydrofuran-2-yl]methoxycarbonyl]-2-methyl-propyl]ammonium chloride]
- max [2749] [1]: 0.0152 µM
- max [2749] [2]: 0.267 µM
- max [2749] [3]: 0.155 µM
- half-life ([4]; microsomes): 38 min
- max [2749] [4]: 0.179 µM
- max [2749] [5]: 0.305 µM
- half-life ([5]; microsomes): 11 min
- half-life ([6]; microsomes): 33 min
- max [2749] [6]: 0.203 µM
- half-life ([7]; human plasma, drug 1.00 μM, 37° C.): 81 min
- half-life ([8]; mouse plasma, drug 1.00 μM): 59 min
- half-life ([9]; rat plasma, drug 1.00 μM): 50 min

Compound: O=c1ccn([C@@H]2O[C@](F)(COP3(=O)OCc4ccccc4O3)[C@@H](O)[C@H]2O)c(=O)[nH]1 (stereo partly drawn) [EIDD-2838]
- EC50 [10]: 8.51 µM
- EC50 ([10]; Venezuelan equine encephalitis virus, Vero 76): 8.28 µM
- EC90 ([11]; Vero 76): 28.4 µM
- EC50 [12]: 5.75 µM and 5.98 µM
- EC50 [12, 61]: 7.82 µM
- EC90 [12, 61]: 24.2 µM
- EC50 ([13]; CHIKV, Vero76 cells): 3.68 µM and 3.91 µM
- EC90 ([13]; Chikungunya virus, Vero 76): 23.9 µM
- EC50 ([13]; Chikungunya virus, Vero 76, CHIKV, Vero76 cells): 2.3 µM
- EC50 [14]: 3.68 µM and 4.14 µM
- EC90 [15]: 8.05 µM
- EC50 [16]: 0.69 µM
- EC90 ([16]; La Crosse virus, Vero 76): 0.12 µM
- EC50 [17]: 19.1 µM
- EC50 ([17]; Vero): 25.3 µM
- EC50 [18]: 5.75 µM
- EC50 ([18]; Punta Toro virus, Vero 76): 6.21 µM
- EC90 [19]: 7.82 µM
- EC50 [20]: 0.37 µM
- EC90 ([20]; Mammarenavirus juninense, Vero): 0.023 µM
- EC90 [21]: 4.6 µM
- EC90 [22]: 0.55 µM
- EC50 [23]: 0.046 µM
- EC90 [23, 62]: 0.046 µM
- EC50 [24]: 1.2 µM and 1.59 µM and 1.98 µM
- EC50 ([24]; Influenza A virus, H1N1, MDCK): 2.3 µM
- EC50 [25]: 4.37 µM
- EC50 ([25]; Influenza A virus, H7N9, MDCK): 5.29 µM
- EC50 [26]: 11.3 µM
- EC50 [27]: 0.87 µM
- EC50 ([27]; Influenza A virus, H3N2, MDCK): 0.97 µM
- EC50 [28]: 0.71 µM
- EC50 ([28]; Influenza A virus, H5N1, MDCK): 0.78 µM
- EC50 [29]: 0.74 µM and 0.67 µM
- EC50 ([29]; Influenza B virus, MDCK): 0.78 µM
- EC50 [30]: 78.2 µM
- EC50 ([30]; MA104): 73.6 µM
- EC50 [31]: 150 µM
- EC50 ([32]; Vero 76): 1.98 µM
- EC50 ([32]; Vero C1008): 2.53 µM
- EC50 [33]: 98.9 µM
- EC50 ([33]; Powassan virus, BHK): 75.9 µM
- EC50 ([34]; ZIKV): 7.82 µM and 9.2 µM
- EC90 ([34]; Zika virus, Vero 76): 43.7 µM
- EC50 ([34]; Zika virus, Vero 76, ZIKV): 8.28 µM
- EC50 ([35]; DENV2, Vero 76): > 230 µM
- EC90 ([35]; DENV2, Vero 76): 29.9 µM
- EC50 [36]: 6.9 µM
- EC90 [36]: 25.8 µM
- EC50 [37]: 8.74 µM
- EC50 ([37]; Enterovirus C, Vero 76): 7.36 µM
- EC50 ([38]; Enterovirus D, RD, Enterovirus-68, RD cells): 7.36 µM
- EC50 ([38]; Enterovirus-68, RD cells): 7.82 µM
- EC50 [39]: > 230 µM
- CC50 [40]: 213 µM
- CC50 [41]: > 230 µM
- CC50 [42]: > 230 µM
- CC50 [43]: > 230 µM
- CC50 [44]: > 230 µM
- CC50 [45]: > 230 µM
- CC50 [46]: > 230 µM
- half-life at 1 μM ([7]; both, human, plasma): 12 min
- half-life at 1 μM ([8]; male, CD-1, mouse, plasma): 1 min
- half-life at 1 μM ([9]; male, Sprague-Dawley, rat, plasma): < 1 min
- half-life at 1 μM [47]: 7 min
- half-life at 1 μM [48]: 7 min
- half-life at 1 μM [49]: 8 min

Compound: CC(C)OC(=O)[C@H](C)N[P@](=O)(OC[C@@]1(F)O[C@@H](n2ccc(=O)[nH]c2=O)[C@H](O)[C@@H]1O)Oc1ccccc1 [EIDD-3232, isopropyl ((S)-(((2S,3S,4R,5R)-5-(2,4-dioxo-3,4-dihydropyrimidin-1(2H)-yl)-2-fluoro-3,4-dihydroxytetrahydrofuran-2-yl)methoxy)(phenoxy)phosphoryl)-L-alaninate]
- EC50 ([10]; Venezuelan equine encephalitis virus, Vero 76, VEEV strain TC-83, Vero 76 cells): > 32 µM
- EC50 ([11]; Vero 76, EEEV strain FL39-939, Vero 76 cells): > 32 µM
- EC50 ([13]; Chikungunya virus, Huh-7): 5.7 µM
- EC90 ([13]; Chikungunya virus, Huh-7): 4.5 µM
- EC50 [14, 63]: 6.4 µM
- EC90 [14, 63]: 7.4 µM
- EC90 ([20]; Mammarenavirus juninense, Vero): 2.2 µM
- EC50 ([20]; Mammarenavirus juninense, Vero, Junin virus strain Candid #1, Vero cells): 2 µM
- EC90 [23, 62]: 3.9 µM
- EC50 ([23]; Mammarenavirus tacaribeense, Vero, Tacaribe virus strain TRVL 11573, Vero cells): 2.8 µM
- EC50 ([24]; Influenza A virus, H1N1, MDCK): 1.3 µM
- EC90 ([24]; Influenza A virus, H1N1, MDCK): 1.5 µM
- EC50 ([30]; MA104): > 32 µM
- EC50 [50]: > 32 µM
- EC50 ([32]; Vero 76): > 32 µM
- EC50 [51]: > 17 µM
- EC50 ([33]; Powassan virus, BHK-21, POWV(Lineage 1) strain LB, BHK-21 cells): > 32 µM
- EC50 ([35]; DENV2, Huh-7): 4.2 µM
- EC90 ([35]; DENV2, Huh-7): 19 µM
- EC50 [52]: > 32 µM
- EC50 [53]: 15 µM
- EC50 ([37]; Enterovirus C, Vero 76, Poliovirus strain Mahoney, Vero 76 cells): > 32 µM
- EC50 ([38]; Enterovirus D, RD): 18 µM
- EC50 [54]: > 32 µM
- EC50 [39]: > 32 µM
- EC50 [55]: 9.6 µM
- Cmax [56]: 2940 ± 826 nM
- Tolerability Summary [57]: Class D
- CC50 [42]: > 32 µM
- CC50 [44]: > 32 µM
- CC50 [45]: > 32 µM
- CC50 [46]: > 32 µM
- CC50 [58]: > 32 µM
- half-life [59]: 288 min
- half-life [60]: > 1440 min
